The text below walks through data of PubChem BioAssay AID1259407 (Chemical Carcinogenesis Research Information System (CCRIS), 2018).

Structures are written as SMILES. Activity calls are given as the source filed them. The rule behind the calls is not given here.

The subject of this data set is CCRIS mutagenicity, Ames/micronucleus/aberration tests. The data set can be described thus: CCRIS mutagenicity studies.
Setting [1] is: Test System: AMES SALMONELLA TYPHIMURIUM, Strain/Indicator: TA100, Metabolic Activation: NONE, Method: STANDARD PLATE.
Setting [2] is: Test System: AMES SALMONELLA TYPHIMURIUM, Strain/Indicator: TA98, Metabolic Activation: NONE, Method: PREINCUBATION
Setting [3] is: Test System: AMES SALMONELLA TYPHIMURIUM, Strain/Indicator: TA100, Metabolic Activation: NONE, Method: PREINCUBATION
Setting [4] is: Test System: AMES SALMONELLA TYPHIMURIUM, Strain/Indicator: TA1535, Metabolic Activation: NONE, Method: PREINCUBATION
Setting [5] is: Test System: AMES SALMONELLA TYPHIMURIUM, Strain/Indicator: TA1537, Metabolic Activation: NONE, Method: PREINCUBATION

For the compound `CC(C)(O)[C@H]1Cc2cc3ccc(=O)oc3cc2O1`, the mutagenic call (Test System: AMES SALMONELLA TYPHIMURIUM, Strain/Indicator: TA92, Metabolic Activation: NONE, Method: SPOT TEST) is “active; positive”; the mutagenic call (Test System: AMES SALMONELLA TYPHIMURIUM, Strain/Indicator: TA92, Metabolic Activation: RAT, LIVER, S-9, AROCLOR 1254, Method: SPOT TEST) was “active; positive”; the mutagenic call (Test System: AMES SALMONELLA TYPHIMURIUM, Strain/Indicator: TA94, Metabolic Activation: NONE, Method: SPOT TEST) was “inactive; negative”; the mutagenic call (Test System: AMES SALMONELLA TYPHIMURIUM, Strain/Indicator: TA94, Metabolic Activation: RAT, LIVER, S-9, AROCLOR 1254, Method: SPOT TEST) was “inactive; negative”; the mutagenic call (Test System: AMES SALMONELLA TYPHIMURIUM, Strain/Indicator: TA97, Metabolic Activation: NONE, Method: SPOT TEST) is “active; positive”; the mutagenic call (Test System: AMES SALMONELLA TYPHIMURIUM, Strain/Indicator: TA97, Metabolic Activation: RAT, LIVER, S-9, AROCLOR 1254, Method: SPOT TEST) is “active; positive”. The mutagenic call is “active; positive” (Test System: AMES SALMONELLA TYPHIMURIUM, Strain/Indicator: TA98, Metabolic Activation: NONE, Method: SPOT TEST); “active; positive” (Test System: AMES SALMONELLA TYPHIMURIUM, Strain/Indicator: TA98, Metabolic Activation: RAT, LIVER, S-9, AROCLOR 1254, Method: SPOT TEST); “active; positive” (Test System: AMES SALMONELLA TYPHIMURIUM, Strain/Indicator: TA100, Metabolic Activation: NONE, Method: SPOT TEST); “active; positive” under setting [1]; “active; positive” (Test System: AMES SALMONELLA TYPHIMURIUM, Strain/Indicator: TA100, Metabolic Activation: RAT, LIVER, S-9, AROCLOR 1254, Method: SPOT TEST); “inactive; negative” (Test System: AMES SALMONELLA TYPHIMURIUM, Strain/Indicator: TA102, Metabolic Activation: NONE, Method: SPOT TEST). Moreover, the mutagenic call (Test System: AMES SALMONELLA TYPHIMURIUM, Strain/Indicator: TA102, Metabolic Activation: RAT, LIVER, S-9, AROCLOR 1254, Method: SPOT TEST) was “inactive; negative”.
With `COc1c(O)cc2oc(-c3ccc(O)cc3)cc(=O)c2c1O`, the mutagenic call was “inactive; negative” under setting [2]; “inactive; negative” (Test System: AMES SALMONELLA TYPHIMURIUM, Strain/Indicator: TA98, Metabolic Activation: RAT LIVER S-9, SODIUM BARBITAL AND BETA-NAPHTHAFLAVONE, Method: PREINCUBATION); “inactive; negative” under setting [3]; “inactive; negative” (Test System: AMES SALMONELLA TYPHIMURIUM, Strain/Indicator: TA100, Metabolic Activation: RAT LIVER S-9, SODIUM BARBITAL AND BETA-NAPHTHAFLAVONE, Method: PREINCUBATION).
`CCCCCCCCCC`: the mutagenic call was “inactive; negative” (Test System: AMES SALMONELLA TYPHIMURIUM, Strain/Indicator: TA97, Metabolic Activation: HAMSTER, LIVER, S-9, AROCLOR 1254 (10 OR 30%), Method: PREINCUBATION); “inactive; negative” (Test System: AMES SALMONELLA TYPHIMURIUM, Strain/Indicator: TA97, Metabolic Activation: NONE, Method: PREINCUBATION); “inactive; negative” (Test System: AMES SALMONELLA TYPHIMURIUM, Strain/Indicator: TA97, Metabolic Activation: RAT, LIVER, S-9, AROCLOR 1254 (5%), Method: PREINCUBATION); “inactive; negative” (Test System: AMES SALMONELLA TYPHIMURIUM, Strain/Indicator: TA97, Metabolic Activation: RAT, LIVER, S-9, AROCLOR 1254 (10 OR 30%), Method: PREINCUBATION); “inactive; negative” (Test System: AMES SALMONELLA TYPHIMURIUM, Strain/Indicator: TA98, Metabolic Activation: HAMSTER, LIVER, S-9, AROCLOR 1254 (10 OR 30%), Method: PREINCUBATION); “inactive; negative” under setting [2]. Further, the mutagenic call was “inactive; negative” (Test System: AMES SALMONELLA TYPHIMURIUM, Strain/Indicator: TA98, Metabolic Activation: RAT, LIVER, S-9, AROCLOR 1254 (10 OR 30%), Method: PREINCUBATION); “inactive; negative” (Test System: AMES SALMONELLA TYPHIMURIUM, Strain/Indicator: TA100, Metabolic Activation: HAMSTER, LIVER, S-9, AROCLOR 1254 (10 OR 30%), Method: PREINCUBATION); “inactive; negative” under setting [3]; “inactive; negative” (Test System: AMES SALMONELLA TYPHIMURIUM, Strain/Indicator: TA100, Metabolic Activation: RAT, LIVER, S-9, AROCLOR 1254 (10 OR 30%), Method: PREINCUBATION); “inactive; negative” (Test System: AMES SALMONELLA TYPHIMURIUM, Strain/Indicator: TA1535, Metabolic Activation: HAMSTER, LIVER, S-9, AROCLOR 1254 (10 OR 30%), Method: PREINCUBATION); “inactive; negative” under setting [4]. In addition, the mutagenic call reads like this: (Test System: AMES SALMONELLA TYPHIMURIUM, Strain/Indicator: TA1535, Metabolic Activation: RAT, LIVER, S-9, AROCLOR 1254 (10 OR 30%), Method: PREINCUBATION) “inactive; negative”; (Test System: AMES SALMONELLA TYPHIMURIUM, Strain/Indicator: TA1537, Metabolic Activation: HAMSTER, LIVER, S-9, AROCLOR 1254 (30%), Method: PREINCUBATION) “inactive; negative”; under setting [5], “inactive; negative”; (Test System: AMES SALMONELLA TYPHIMURIUM, Strain/Indicator: TA1537, Metabolic Activation: RAT, LIVER, S-9, AROCLOR 1254 (5 OR 10%), Method: PREINCUBATION) “inactive; negative”; (Test System: AMES SALMONELLA TYPHIMURIUM, Strain/Indicator: TA1537, Metabolic Activation: RAT, LIVER, S-9, AROCLOR 1254 (30%), Method: PREINCUBATION) “inactive; negative”.
Regarding `COC(=O)C1=C(C)NC(C)=C(C(=O)OC/C=C/c2ccccc2)C1c1cccc([N+](=O)[O-])c1` (configuration not stated), the mutagenic call runs as follows: under setting [2], “inactive; negative”; (Test System: AMES SALMONELLA TYPHIMURIUM, Strain/Indicator: TA98, Metabolic Activation: RAT, LIVER, S-9, PHENOBARBITAL AND 5,6-BENZOFLAVONE, Method: PREINCUBATION) “inactive; negative”; under setting [3], “inactive; negative”; (Test System: AMES SALMONELLA TYPHIMURIUM, Strain/Indicator: TA100, Metabolic Activation: RAT, LIVER, S-9, PHENOBARBITAL AND 5,6-BENZOFLAVONE, Method: PREINCUBATION) “inactive; negative”; under setting [4], “inactive; negative”; (Test System: AMES SALMONELLA TYPHIMURIUM, Strain/Indicator: TA1535, Metabolic Activation: RAT, LIVER, S-9, PHENOBARBITAL AND 5,6-BENZOFLAVONE, Method: PREINCUBATION) “inactive; negative”. Besides, the mutagenic call under setting [5] was “inactive; negative”; the mutagenic call (Test System: AMES SALMONELLA TYPHIMURIUM, Strain/Indicator: TA1537, Metabolic Activation: RAT, LIVER, S-9, PHENOBARBITAL AND 5,6-BENZOFLAVONE, Method: PREINCUBATION) was “inactive; negative”; the mutagenic call (Test System: E. COLI, Strain/Indicator: WP2 UVRA, Metabolic Activation: NONE, Method: PREINCUBATION) is “inactive; negative”; the mutagenic call (Test System: E. COLI, Strain/Indicator: WP2 UVRA, Metabolic Activation: RAT, LIVER, S-9, PHENOBARBITAL AND 5,6-BENZOFLAVONE, Method: PREINCUBATION) is “inactive; negative”.
Turning to `Cc1ncc([N+](=O)[O-])n1C`, the mutagenic call by setting is: (Test System: AMES SALMONELLA TYPHIMURIUM, Strain/Indicator: TA97, Metabolic Activation: NONE, Method: STANDARD PLATE) “active; positive”; (Test System: AMES SALMONELLA TYPHIMURIUM, Strain/Indicator: TA97, Metabolic Activation: RAT, LIVER, S-9, AROCLOR 1254, Method: STANDARD PLATE) “active; positive”; (Test System: AMES SALMONELLA TYPHIMURIUM, Strain/Indicator: TA98, Metabolic Activation: NONE, Method: STANDARD PLATE) “active; positive”; (Test System: AMES SALMONELLA TYPHIMURIUM, Strain/Indicator: TA98, Metabolic Activation: RAT, LIVER, S-9, AROCLOR 1254, Method: STANDARD PLATE) “active; positive”; under setting [1], “active; positive”; (Test System: AMES SALMONELLA TYPHIMURIUM, Strain/Indicator: TA100, Metabolic Activation: RAT, LIVER, S-9, AROCLOR 1254, Method: STANDARD PLATE) “active; positive”. Further, the mutagenic call by setting is: (Test System: AMES SALMONELLA TYPHIMURIUM, Strain/Indicator: TA102, Metabolic Activation: NONE, Method: STANDARD PLATE) “active; positive”; (Test System: AMES SALMONELLA TYPHIMURIUM, Strain/Indicator: TA102, Metabolic Activation: RAT, LIVER, S-9, AROCLOR 1254, Method: STANDARD PLATE) “active; positive”.
